Data reported in patent US6506772B1, “Substituted [1,2,4]triazolo[1,5a]pyridine derivatives with activity as adenosine receptor ligands” (Hoffmann-La Roche Inc., priority 2000, dated 2003).
Read-outs that look alike come from different tables or passages of the source.

Assays:
HA1 adenosine receptor = molecular target: T1, HA1 adenosine receptor (Homo sapiens, UniProt P30542); assay: Human adenosine A1 receptor affinity (Ki hA1); format: binding
T1 sequence (P30542 1-326): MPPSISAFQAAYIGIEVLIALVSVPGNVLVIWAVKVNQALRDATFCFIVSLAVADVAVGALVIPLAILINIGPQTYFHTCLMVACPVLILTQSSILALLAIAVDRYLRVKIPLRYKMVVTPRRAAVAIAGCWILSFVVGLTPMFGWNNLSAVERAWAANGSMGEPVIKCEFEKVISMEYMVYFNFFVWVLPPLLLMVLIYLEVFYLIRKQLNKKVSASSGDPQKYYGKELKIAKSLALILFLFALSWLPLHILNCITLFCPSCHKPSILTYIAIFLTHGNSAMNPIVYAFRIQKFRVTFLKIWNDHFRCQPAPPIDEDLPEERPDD

[1] = molecular target: T2, human adenosine A2A receptor (Homo sapiens, UniProt P29274); assay: Human adenosine A2A receptor [3H]-SCH-58261 binding assay
T2 construct: expressed in transfected cells; host or cells: CHO cells, Semliki Forest virus expression system; membrane preparation

[2] = affinity to human adenosine A1 receptor
[3] = affinity to human adenosine A2A receptor, read-out: Ki HA2A
[4] = calculated ratio of the affinity to the HA1 receptor to the HA2a receptor
[5] = recombinant human A2A in CHO cell membranes, [3H]-SCH-58261, Cheng-Prussoff, read-out: Ki hA2A

T2 sequence (P29274 whole entry): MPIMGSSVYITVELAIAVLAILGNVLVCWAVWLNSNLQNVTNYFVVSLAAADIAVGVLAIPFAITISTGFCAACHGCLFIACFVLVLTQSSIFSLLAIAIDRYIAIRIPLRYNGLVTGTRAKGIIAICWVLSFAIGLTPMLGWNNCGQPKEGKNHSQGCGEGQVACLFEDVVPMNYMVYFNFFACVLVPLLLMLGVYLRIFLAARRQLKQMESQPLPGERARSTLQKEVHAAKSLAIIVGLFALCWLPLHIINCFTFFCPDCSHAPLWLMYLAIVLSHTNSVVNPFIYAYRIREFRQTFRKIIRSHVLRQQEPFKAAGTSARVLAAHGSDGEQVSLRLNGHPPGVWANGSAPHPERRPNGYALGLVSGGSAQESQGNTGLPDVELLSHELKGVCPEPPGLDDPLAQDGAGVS

Structure (SMILES)	Ki (HA1 adenosine receptor; [2]) [nM]	Ki [1, 3] [nM]	selectivity (A1/A2a) [1, 4]	Ki (HA1 adenosine receptor) [nM]	selectivity (A1/A2a) ([1]; ratio KiHA1 divided by KiHA2A)	Ki [1, 5] [nM]
CN(C(=O)c1cc(N)n2nc(-c3ccc(Cl)o3)nc2c1)C1CCCCC1 [Example 242, 5-Amino-2-(5-chloro-furan-2-yl)-[1,2,4]triazolo[1,5-a]pyridine-7-carboxylic acid cyclohexyl-methyl-amide]	124	6.5	19.0	–	–	–
COc1cc(CNC(=O)c2cc(N)n3nc(-c4ccc(C)o4)nc3c2)cc(OC)c1OC [Example 112, 5-Amino-2-(5-methyl-furan-2-yl)-[1,2,4]triazolo[1,5-a]pyridine-7-carboxylic acid 3,4,5-trimethoxy-benzylamide]	2440	147	16.6	–	–	–
Nc1cc(C(=O)NCc2ccccc2Br)cc2nc(-c3ccoc3)nn12 [Example 157, 5-Amino-2-furan-3-yl-[1,2,4]triazolo[1,5-a]pyridine-7-carboxylic acid 2-bromo-benzylamide]	231	18	12.8	–	–	–
CC(=O)NC1CCN(C(=O)c2cc(N)n3nc(-c4ccc(Br)o4)nc3c2)C1 (stereo not drawn) [Example 391, N-{1-[5-Amino-2-(5-bromo-furan-2-yl)-[1,2,4]triazolo[1,5-a]pyridine-7-carbonyl]-pyrrolidin-3-yl}-acetamide]	–	–	–	1460	27.6	53
Nc1cc(C(=O)NC2CCCCC2)cc2nc(-c3cccs3)nn12 [Example 162, 5-Amino-2-thiophen-2-yl-[1,2,4]triazolo[1,5-a]pyridine-7-carboxylic acid cyclohexylamide]	301	61.4	4.9	–	–	–
Nc1cc(C(=O)NCc2ccccc2)cc2nc(-c3ccc(Cl)o3)nn12 [Example 238, 5-Amino-2-(5-chloro-furan-2-yl)-[1,2,4]triazolo[1,5-a]pyridine-7-carboxylic acid benzylamide]	94.3	40.4	2.3	–	–	–
CC(C)N(Cc1ccccc1)C(=O)c1cc(N)n2nc(-c3ccccn3)nc2c1 [Example 433, 5-Amino-2-pyridin-2-yl-[1,2,4]triazolo[1,5-a]pyridine-7-carboxylic acid benzyl-isopropyl-amide]	–	–	–	185	11.8	15.6
CCC1CCC(C)N(C(=O)c2cc(N)n3nc(-c4nccs4)nc3c2)C1 (stereo not drawn) [Example 404, (5-Amino-2-thiazol-2-yl-[1,2,4]triazolo[1,5-a]pyridin-7-yl)-(5-ethyl-2-methyl-piperidin-1-yl)-methanone]	–	–	–	1250	13.3	94.3
Cc1ccsc1-c1nc2cc(C(=O)N(C(C)C)C(C)C)cc(N)n2n1 [Example 186, 5-Amino-2-(3-methyl-thiophen-2-yl)-[1,2,4]triazolo[1,5-a]pyridine-7-carboxylic acid diisopropylamide]	249	210	1.2	–	–	–
Nc1cc(C(=O)NC2CCCCC2)cc2nc(-c3ccc(Cl)o3)nn12 [Example 234, 5-Amino-2-(5-chloro-furan-2-yl)-[1,2,4]triazolo[1,5-a]pyridine-7-carboxylic acid cyclohexylamide]	455	69.5	6.6	–	–	–
CC(C)N(C)C(=O)c1cc(N)n2nc(-c3ccc(Br)o3)nc2c1 [Example 269, 5-Amino-2-(5-bromo-furan-2-yl)-[1,2,4]triazolo[1,5-a]pyridine-7-carboxylic acid isopropyl-methyl-amide]	110	2.7	40.9	–	–	–
Nc1cc(C(=O)N2CCc3ccccc3C2)cc2nc(-c3ccccn3)nn12 [Example 30, (5-Amino-2-pyridin-2-yl-[1,2,4]triazolo[1,5-a]pyridin-7-yl)-(3,4-dihydro-1H-isoquinolin-2-yl)-methanone]	2140	212	10.1	–	–	–
CCCCNC(=O)c1cc(N)n2nc(-c3cc(Br)co3)nc2c1 [Example 168, 5-Amino-2-(4-bromo-furan-2-yl)-[1,2,4]triazolo[1,5-a]pyridine-7-carboxylic acid butylamide]	47.2	18.4	2.6	–	–	–
C=CCN(CC=C)C(=O)c1cc(N)n2nc(-c3nccs3)nc2c1 [Example 290, 5-Amino-2-thiazol-2-yl-[1,2,4]triazolo[1,5-a]pyridine-7-carboxylic acid diallylamide]	1280	57.6	22.2	–	–	–
COc1ccccc1CCNC(=O)c1cc(N)n2nc(-c3ccccn3)nc2c1 [Example 45, 5-Amino-2-pyridin-2-yl-[1,2,4]triazolo[1,5-a]pyridine-7-carboxylic acid [2-(2-methoxy-phenyl)-ethyl]-amide]	128	53.5	2.4	–	–	–
CC1CCCN1C(=O)c1cc(N)n2nc(-c3ccccn3)nc2c1 (stereo not drawn) [Example 413, (5-Amino-2-pyridin-2-yl-[1,2,4]triazolo[1,5-a]pyridin-7-yl)-(2-methyl-pyrrolidin-1-yl)-methanone]	–	–	–	1430	37.8	37.8
CCCCNC(=O)c1cc(N)n2nc(-c3ccc(C)s3)nc2c1 [Example 193, 5-Amino-2-(5-methyl-thiophen-2-yl)-[1,2,4]triazolo[1,5-a]pyridine-7-carboxylic acid butylamide]	74.8	41.7	1.8	–	–	–
COc1cc(CNC(=O)c2cc(N)n3nc(-c4nccs4)nc3c2)cc(OC)c1OC [Example 97, 5-Amino-2-thiazol-2-yl-[1,2,4]triazolo[1,5-a]pyridine-7-carboxylic acid 3,4,5-trimethoxy-benzylamide]	2560	235	10.9	–	–	–
CCCCN(C)C(=O)c1cc(N)n2nc(-c3ccc(Br)o3)nc2c1 [Example 271, 5-Amino-2-(5-bromo-furan-2-yl)-[1,2,4]triazolo[1,5-a]pyridine-7-carboxylic acid butyl-methyl-amide]	149	6.5	22.9	–	–	–

Further compounds by falling Ki (HA1 adenosine receptor; [2]), results first:

Ki (HA1 adenosine receptor; [2]) [nM]	Ki [1, 3] [nM]	selectivity (A1/A2a) [1, 4]	Ki (HA1 adenosine receptor) [nM]	selectivity (A1/A2a) ([1]; ratio KiHA1 divided by KiHA2A)	Ki [1, 5] [nM]	Structure (SMILES)
4120	281	14.6	–	–	–	COc1ccc(CNC(=O)c2cc(N)n3nc(-c4ccc(C)o4)nc3c2)cc1OC [Example 142, 5-Amino-2-(5-methyl-furan-2-yl)-[1,2,4]triazolo[1,5-a]pyridine-7-carboxylic acid 3,4-dimethoxy-benzylamide]
2260	308	7.3	–	–	–	CCN(C(=O)c1cc(N)n2nc(-c3ccoc3)nc2c1)C(C)C [Example 221, 5-Amino-2-furan-3-yl-[1,2,4]triazolo[1,5-a]pyridine-7-carboxylic acid ethyl-isopropyl-amide]
1220	127	9.6	–	–	–	CN(CCc1ccccc1)C(=O)c1cc(N)n2nc(-c3nccs3)nc2c1 [Example 322, 5-Amino-2-thiazol-2-yl-[1,2,4]triazolo[1,5-a]pyridine-7-carboxylic acid methyl-phenethyl-amide]
934	7.3	128.0	–	–	–	C[C@@H]1CC[C@@H](C)N1C(=O)c1cc(N)n2nc(-c3ccc(Br)o3)nc2c1 [Example 359, [5-Amino-2-(5-bromo-furan-2-yl)-[1,2,4]triazolo[1,5-a]pyridin-7-yl]-[(2R,5R)-trans-2,5-dimethyl-pyrrolidin-1-yl]-methanone]
900	174	5.2	–	–	–	CCCCN(Cc1ccccc1)C(=O)c1cc(N)n2nc(-c3cccnc3)nc2c1 [Example 89, 5-Amino-2-pyridin-3-yl-[1,2,4]triazolo[1,5-a]pyridine-7-carboxylic acid benzyl-butyl-amide]
815	144	5.7	–	–	–	CCN(Cc1ccccc1F)C(=O)c1cc(N)n2nc(-c3cccnc3)nc2c1 [Example 91, 5-Amino-2-pyridin-3-yl-[1,2,4]triazolo[1,5-a]pyridine-7-carboxylic acid ethyl-(2-fluoro-benzyl)-amide]
294	157	1.9	–	–	–	Nc1cc(C(=O)NCc2ccc(Cl)cc2)cc2nc(-c3nccs3)nn12 [Example 205, 5-Amino-2-thiazol-2-yl-[1,2,4]triazolo[1,5-a]pyridine-7-carboxylic acid 4-chloro-benzylamide]
204	17	12.0	–	–	–	CC(C)N(Cc1ccccc1)C(=O)c1cc(N)n2nc(-c3ccccc3O)nc2c1 [Example 121, 5-Amino-2-(2-hydroxy-phenyl)-[1,2,4]triazolo[1,5-a]pyridine-7-carboxylic acid benzyl-isopropyl-amide]
133	30	4.4	–	–	–	Nc1cc(C(=O)NCc2ccccc2Br)cc2nc(-c3ccccc3)nn12 [Example 219, 5-Amino-2-phenyl-[1,2,4]triazolo[1,5-a]pyridine-7-carboxylic acid 2-bromo-benzylamide]
106	42.9	2.5	–	–	–	CCN(Cc1ccccc1)C(=O)c1cc(N)n2nc(-c3ccc(OC)s3)nc2c1 [Example 59, 5-Amino-2-(5-methoxy-thiophen-2-yl)-[1,2,4]triazolo[1,5-a]pyridine-7-carboxylic acid benzyl-ethyl-amide]
